The text below walks through data of patent publication US20250382305A1 (PTC THERAPEUTICS, INC., priority 2022, published 2025).

For assay [1], the system named is Total ATXN3 (tATXN3) protein. Description: Endogenous Total ATXN3 (tATXN3) Protein Assay (MSD immunoassay of cell lysates). The class given is cell-based. The note with it: average IC50, total ATXN3 protein in cell lysate after 48 h with compound (Table 1). As to the method: Endogenous Total ATXN3 (tATXN3) Protein Assay
Meso Scale Discovery (MSD) 96-well or 384-well plates were coated overnight at 4° C. with Ataxin 3 mouse monoclonal antibody (Invitrogen, MA3-082) at a concentration of 0.5 μg/mL in PBS (30 μL per well). Plates were then washed three times with 300 μL wash buffer (0.05% TWEEN®-20, polyethylene glycol sorbitan monolaurate, in PBS) and blocked (Meso Scale Diagnostics, R93BA-1; 5% BSA in PBS) for 2 h at RT with rotational shaking and then washed three times with wash buffer.
(§1) Test compounds were serially diluted 3.16-fold in 100% DMSO to generate a 7-point concentration curve. Aliquots of 0.5 μL of diluted compounds were transferred to a 96-well flat bottom plate by a liquid handler. An aliquot of 0.5 μL DMSO was also transferred to separate wells and used as controls. Duplicate samples were set up for each compound concentration and for the DMSO control.
Cells were thawed and incubated in cell culture media (DMEM, 10% FBS, and 1% antibiotic cocktail) for 72 h. Cells were trypsinized, counted, and re-suspended to a concentration of 100,000 cells/mL in cell culture media. A 100 μL aliquot of the cell suspensions were plated at 10,000 cells per well in the compound containing 96 well microtiter plate and incubated for in a cell culture incubator (37° C., 5% CO2, 100% relative humidity). After 48 h, the medium was removed and 50-100 μL of lysis buffer (Meso Scale Diagnostics, R60TX-2) containing 1× halt protease inhibitor cocktail of (Thermo Scientific, Halt™ Protease Inhibitor Cocktail, 78430) per well was added to cells to provide a “cell lysate”. The plate was placed on a shaker at 4° C. for 30 minutes, then stored at −80° C.
Cell lysate samples (25 μL) were transferred to the antibody-coated MSD plate and incubated overnight at 4° C. After removal of the lysates, the plate was washed three times with wash buffer, and 25 μL of Ataxin 3 recombinant rabbit monoclonal antibody (Invitrogen, #702788) secondary antibody (diluted to 0.25 μg/mL in 0.05% TWEEN®-20 in blocking buffer) was added to each well and incubated with shaking for 1-2 h at room temperature. Following incubation with the secondary antibody, the wells were rinsed with wash buffer and then 25 μL of Anti Rabbit Antibody Goat SULFO-TAG Labeled (Meso Scale Diagnostics, R32AB-1) detecting antibody (diluted to […] in 0.05% TWEEN®-20 in blocking buffer) was added to each well and incubated with shaking for 1 h at room temperature. After rinsing three times with wash buffer, 150 μL of Read Buffer T with surfactant (tris-based buffer containing tripropylamine, Meso Scale Diagnostics, R92TC-1) were added to each empty well, and the plate was imaged on a SI 6000 imager (MSD) according to manufacturers' instructions provided for 96- or 384-well plates.
(§2) An average IC50>1 μM is indicated by one star (*), between >0.3 μM and ≤1 μM is indicated by two stars (**), between >0.03 μM and ≤0.3 μM is indicated by three stars (***), and ≤0.03 μM is indicated by four stars (****).

A further assay relates to ATXN3 pre-mRNA. Description: RT-qPCR Assay to Quantify Exon 4 Skipping in ATXN3 pre-mRNA in Cells. The class given is cell-based. Particulars: percent exon 4 skipping in ATXN3 pre-mRNA, RT-qPCR of cell lysates; average IC50. How it is done:
RT-qPCR Assay to Quantify Exon 4 Skipping in ATXN3 pre-mRNA in Cells
as §1
Cells were thawed and incubated in cell culture media (DMEM, 10% FBS, and 1% antibiotic cocktail) for 72 h. Cells were trypsinized, counted, and re-suspended to a concentration of 100,000 cells/mL in cell culture media. A 100 μL aliquot of the cell suspensions were plated at 10,000 cells per well in the compound containing 96 well microtiter plate and incubated for in a cell culture incubator (37° C., 5% CO2, 100% relative humidity).
After 24 h, media was aspirated from the cells and 50 μL of the RCL2 lysis buffer (10 mM Tris-HCL pH 7.4, 150 mM NaCl, 0.33% IGEPAL® CA-630) was added to each well and incubated at RT for 1 min. Chilled nuclease free water (50 μL per well) was added and the plates were immediately transferred on ice. After 1 min on ice, plates were frozen at −80° C. overnight.
Preparation of RT-qPCR Reaction Mixture:
An aliquot of 2 μL/well of the cell lysates was transferred using the liquid handler to the Armadillo 384-Well PCR plate containing 8 μL/well of the RT-qPCR reaction mixture that was prepared as detailed above. The plates were then sealed with MicroAmp™ Optical Adhesive Film followed by spinning down for 1 min and placed in the CFX384 thermocycler (BioRad).
The RT-qPCR was carried out at the following temperatures for the indicated time: • Step 1: 48° C. (30 min) • Step 2: 95° C. (10 min) • Step 3: 95° C. (15 sec) • Step 4: 60° C. (1 min); then, repeated Steps 3 and 4 for a total of 40 cycles.
The percent exon 4 skipping was calculated for each dose of compound treatment using Equations 1 and 2.
Data were fit to a dose response curve and the IC50 was interpolated using XLfit® statistical and curve fitting package.
as §2

pIC50: −log10 of the molar value.

For orientation: pIC50 means −log10 of the IC50, conventionally taken in molar units. For the compound “2-(3-aminotetrahydro-2H-pyran-2-yl)-N-benzyl-3-bromo-5-chlorothieno[3,2-b]pyridin-7-amine [Compound 27]”, the pIC50 was 6.52 to 7.52 in assay [1] and at least 7.52 in the assay with ATXN3 pre-mRNA.
The like results for `[2H]C1=C([2H])C([2H])([2H])[C@H](c2sc3c(NCc4ccco4)nc(Cl)nc3c2C)[C@@H](N)C1([2H])[2H]` [Compound 187, 6-((1S,6S)-6-aminocyclohex-3-en-1-yl-2,2,3,4,5,5-d6)-2-chloro-N-(furan-2-ylmethyl)-7-methylthieno[3,2-d]pyrimidin-4-amine] were, in that order, at least 7.52 and at least 7.52.
For the compound `N[C@H]1CC=CC[C@@H]1c1sc2c(NCc3ccncc3)cc(Cl)nc2c1Cl` [Compound 203, 2-((1S,6S)-6-aminocyclohex-3-en-1-yl)-3,5-dichloro-N-(pyridin-4-ylmethyl)thieno[3,2-b]pyridin-7-amine], the pIC50 (in assay [1]; in the assay with ATXN3 pre-mRNA) was at least 7.52 throughout.
On to `N[C@H]1CCCC[C@@H]1c1c(I)c2nc(Cl)nc(NCc3ccco3)c2n1C(F)F` [Compound 304, 6-((1S,2S)-2-aminocyclohexyl)-2-chloro-5-(difluoromethyl)-N-(furan-2-ylmethyl)-7-iodo-5H-pyrrolo[3,2-d]pyrimidin-4-amine], for which the pIC50 (in assay [1]; with ATXN3 pre-mRNA) was 6.52 to 7.52 throughout.
`N[C@H]1CC=CC[C@@H]1c1sc2c(NCc3ccco3)cc(Cl)nc2c1Br` [Compound 206, 2-((1S,6S)-6-aminocyclohex-3-en-1-yl)-3-bromo-5-chloro-N-(furan-2-ylmethyl)thieno[3,2-b]pyridin-7-amine]: the pIC50 (in assay [1]; in the assay on ATXN3 pre-mRNA) was at least 7.52 each time.
Take `N[C@H]1CCCO[C@@H]1c1c(Cl)c2nc(Cl)nc(NCc3ccco3)c2n1C(F)F` [Compound 271, 6-((2S,3S)-3-aminotetrahydro-2H-pyran-2-yl)-2,7-dichloro-5-(difluoromethyl)-N-(furan-2-ylmethyl)-5H-pyrrolo[3,2-d]pyrimidin-4-amine]: the pIC50 (in assay [1]; with ATXN3 pre-mRNA) was 6.52 to 7.52 throughout.
Turning to “2-((1R,6R)-6-aminocyclohex-3-en-1-yl)-3-bromo-5-chloro-N-((E)-pent-2-en-1-yl)thieno[3,2-b]pyridin-7-amine and 2-((1S,6S)-6-aminocyclohex-3-en-1-yl)-3-bromo-5-chloro-N-((E)-pent-2-en-1-yl)thieno[3,2-b]pyridin-7-amine [Compound 455]”, the pIC50 (in assay [1]; in the assay with ATXN3 pre-mRNA) was 6.00 to 6.52 in each case.
Regarding `N[C@@H]1CCCO[C@H]1c1sc2c(NCc3ccco3)cc(Cl)nc2c1Br` [Compound 118, 2-((2R,3R)-3-aminotetrahydro-2H-pyran-2-yl)-3-bromo-5-chloro-N-(furan-2-ylmethyl)thieno[3,2-b]pyridin-7-amine], the pIC50 (in assay [1]; with ATXN3 pre-mRNA) was 6.00 to 6.52 in each case.
Take `N[C@H]1CCOC[C@@H]1c1sc2c(NCc3ccco3)cc(Cl)nc2c1Cl` [Compound 174, 2-((3R,4S)-4-aminotetrahydro-2H-pyran-3-yl)-3,5-dichloro-N-(furan-2-ylmethyl)thieno[3,2-b]pyridin-7-amine]: the pIC50 (in assay [1]; with ATXN3 pre-mRNA) was at least 7.52 throughout.
Consider “2-((2R,3R)-3-amino-5-methylenetetrahydro-2H-pyran-2-yl)-3-bromo-5-chloro-N-(thiophen-2-ylmethyl)thieno[3,2-b]pyridin-7-amine and 2-((2S,3S)-3-amino-5-methylenetetrahydro-2H-pyran-2-yl)-3-bromo-5-chloro-N-(thiophen-2-ylmethyl)thieno[3,2-b]pyridin-7-amine [Compound 259]”, for which the pIC50 (in assay [1]; in the assay with ATXN3 pre-mRNA) was 6.52 to 7.52 in each case.
Regarding `Cc1c([C@H]2CCCC[C@@H]2N)sc2c(NCc3cccs3)cc(Cl)nc12` [Compound 71, 2-((1S,2S)-2-aminocyclohexyl)-5-chloro-3-methyl-N-(thiophen-2-ylmethyl)thieno[3,2-b]pyridin-7-amine], the pIC50 (in assay [1]; in the assay on ATXN3 pre-mRNA) was at least 7.52 in each case.
`N[C@H]1CCCO[C@@H]1c1sc2c(NCc3ccccc3)cc(Cl)nc2c1Cl` [Compound 110, 2-((2S,3S)-3-aminotetrahydro-2H-pyran-2-yl)-N-benzyl-3,5-dichlorothieno[3,2-b]pyridin-7-amine]: the pIC50 in assay [1] is 6.52 to 7.52; with ATXN3 pre-mRNA, at least 7.52.
The like results for `N[C@@H]1CCCO[C@H]1c1sc2c(NCc3ccccc3)cc(Cl)nc2c1Cl` [Compound 156, 2-((2R,3R)-3-aminotetrahydro-2H-pyran-2-yl)-N-benzyl-3,5-dichlorothieno[3,2-b]pyridin-7-amine] were, in that order, below 6.00 and below 6.00.
Taken in the same sequence, the figures for `N[C@@H]1CC=CC[C@H]1c1sc2c(NCc3ccncc3F)nc(Cl)nc2c1Cl` [Compound 439, 6-((1R,6R)-6-aminocyclohex-3-en-1-yl)-2,7-dichloro-N-((3-fluoropyridin-4-yl)methyl)thieno[3,2-d]pyrimidin-4-amine] were 6.00 to 6.52 and 6.00 to 6.52.
In the case of “2-((1R,6R)-6-aminocyclohex-3-en-1-yl)-5-chloro-3-(propa-1,2-dien-1-yl)-N-(thiophen-2-ylmethyl)thieno[3,2-b]pyridin-7-amine and 2-((1S,6S)-6-aminocyclohex-3-en-1-yl)-5-chloro-3-(propa-1,2-dien-1-yl)-N-(thiophen-2-ylmethyl)thieno[3,2-b]pyridin-7-amine [Compound 324]”, the pIC50 (in assay [1]; in the assay with ATXN3 pre-mRNA) was 6.52 to 7.52 in each case.
For `N[C@H]1CCCO[C@@H]1c1sc2c(NCc3ccccc3)cc(Cl)nc2c1I` [Compound 136, 2-((2S,3S)-3-aminotetrahydro-2H-pyran-2-yl)-N-benzyl-5-chloro-3-iodothieno[3,2-b]pyridin-7-amine], the pIC50 (in assay [1]; in the assay on ATXN3 pre-mRNA) was at least 7.52 in each case.
For the compound `N[C@H]1CCC[C@@H]1c1sc2c(NCc3ccccc3)cc(Cl)nc2c1Cl` [Compound 159, 2-((1S,2S)-2-aminocyclopentyl)-N-benzyl-3,5-dichlorothieno[3,2-b]pyridin-7-amine], the pIC50 (in assay [1]; in the assay with ATXN3 pre-mRNA) was below 6.00 throughout.
For `N[C@H]1CCCCCC[C@H]1c1cc2nc(Cl)cc(NCc3cccs3)c2s1` [Compound 104, 2-((1R,2S)-2-aminocyclooctyl)-5-chloro-N-(thiophen-2-ylmethyl)thieno[3,2-b]pyridin-7-amine], the pIC50 (in assay [1]; in the assay with ATXN3 pre-mRNA) was below 6.00 in each case.
For the compound `N[C@@H]1CCC[C@H]1c1sc2c(NCc3cccs3)cc(Cl)nc2c1-c1ccccc1` [Compound 135, 2-((1R,2R)-2-aminocyclopentyl)-5-chloro-3-phenyl-N-(thiophen-2-ylmethyl)thieno[3,2-b]pyridin-7-amine], the pIC50 (in assay [1]; in the assay with ATXN3 pre-mRNA) was below 6.00 each time.
